Experiment [1] has as its system mouse embryonic stem cells. Put plainly: Influence on mouse embryonic stem cell morphology (inverted phase contrast microscope). The format is cell-based. The settings on record: ten days. As for the experimental part:
The embryonic stem cells were evenly grown in a 24-well plate, a normal group was set after the cells adhered on the wall: the normal group was cultured under the condition of differentiation culture medium (after removal of leukemia inhibitory factor from normal culture medium); solvent control group: the group was cultured after DMSO was added under the culture condition of differentiation culture medium; experimental group: the group was cultured after 2,3-dihydro-3-hydroxymethyl-6-amino-[1,4]-benzoxazine with the concentration of 0.5 μM˜40 μM was added under the culture condition of differentiation culture medium. The culture conditions: 37° C., CO2 incubator box for cultivation. The culture medium should be replaced everyday in a timing mode, the morphological changes were observed under an inverted phase contrast microscope until the tenth day.
(§1) The embryonic stem cells were evenly grown in a 24-well plate according to density of 2×10^4 cells/well, DMEM (high glucose) containing leukemia inhibitory factor, L-glutamine, streptomycin, β-mercaptoethanol, non-essential amino acids, nucleotides and 15% PBS was used for culturing for 24 hours, the waste liquid was discarded after the cells adhered on the wall, and the cells were cleaned with 1×PBS. A normal group was set: the normal group was cultured under the culture condition that leukemia inhibitory factor was removed; solvent control group: the group was cultured after DMSO was added under the culture condition that leukemia inhibitory factor was removed; experimental group: the group was cultured after 2,3-dihydro-3-hydroxymethyl-6-amino-[1,4]-benzoxazine with the concentration of 0.5 μM, 1 μM, 5 μM, 10 μM, 20 μM, 30 μM and 40 μM was added under the culture condition that leukemia inhibitory factor was removed. The culture conditions: 37° C., CO2 incubator box for cultivation. The culture medium should be replaced everyday in a timing mode, and the cells were continuously cultured for ten days and then were observed under an inverted phase contrast microscope.

For experiment [2], the system named is vascular endothelial cell marker Flk-1 in embryonic stem cells. Put plainly: Detection of vascular endothelial cell marker Flk-1 (immunohistochemistry, laser scanning confocal microscopy). The format is cell-based, mouse. The following applies: induction for 10 days. As for the experimental part: The embryonic stem cells which were induced with 2,3-dihydro-3-hydroxymethyl-6-amino-[1,4]-benzoxazine with the concentration of 0.5 μM˜40 μM for 5 days and 10 days were evenly grown in 48-well plate and cultured for 24 hours in CO2 incubation chamber at 37° C., after the cells adhered on the wall, immunohistochemistry and laser scanning confocal microscopy were used for observing the expression of endothelial cell markers—Flk-1 The normal group was set: the group was cultured in under the culture condition of differentiation culture medium; solvent control group: the group was cultured after DMSO was added under the culture condition of differentiation culture medium; experimental group: the group was cultured after 2,3-dihydro-3-hydroxymethyl-6-amino-[1,4]-benzoxazine with the concentration of 0.5 μM˜40 μM was added under the culture condition of differentiation culture medium.
as §1, with “48-well” for “24-well”, “and cultured for 24 hours with” for “according to density of 2×10^4 cells/well,”, “FBS,” for “PBS was used for culturing for 24 hours,”, “The” for “A”, “the” for “the normal”, “cultivation.” for “cultivation. The culture medium should be replaced everyday in a timing mode, and the cells were continuously cultured for ten days and then were observed under an inverted phase contrast microscope.”

Experiment [3] relates to vascular endothelial marker CD31 in embryonic stem cells. Nature of the experiment: Detection of vascular endothelial cell marker CD31 (Western blot). The class given is cell-based, mouse. The settings on record: induction for 10 days. The method, then: The embryonic stem cells induced by 2,3-dihydro-3-hydroxymethyl-6-amino-[1,4]-benzoxazine with the concentration of 0.5 μM˜40 μM for ten days were cracked, and total cellular protein was distilled. The solvent control group was set: the group was cultured after DMSO was added under the culture condition of differentiation culture medium; experimental group: the group was cultured after 2,3-dihydro-3-(hydroxymethyl)-6-Amino-[1,4]-benzoxazine with the concentration of 0.5 μM˜40 μM under the culture condition of differentiation culture medium. The extracted embryonic stem cells were used for Western blot experiment to detect the expression of vascular endothelial marker CD31.
The embryonic stem cells were evenly grown in a 6-well plate according to the density of 2×10^4 cells/well, and cultured for 24 hours with DMEM (high glucose) containing leukemia inhibitory factor, L-glutamine, streptomycin, β-mercaptoethanol, non-essential amino acids, nucleotides and 15% FBS, the waste liquid was discarded after the cells adhered on the wall, and the cells were cleaned with 1×PBS. The normal group was set: the group was cultured under the culture condition that leukemia inhibitory factor was removed; solvent control group: the group was cultured after DMSO was added under the culture condition that leukemia inhibitory factor was removed; experimental group: the group was cultured after 2,3-dihydro-3-hydroxymethyl-6-amino-[1,4]-benzoxazine with the concentration of 0.5 μM, 1 μM, 5 μM, 10 μM, 20 μM, 30 μM and 40 μM was added under the culture condition that leukemia inhibitory factor was removed. The culture conditions: 37° C., CO2 incubator box for cultivation. The culture medium should be replaced everyday, and the cells should be continuously cultured for ten days. The total protein of each group of cells was distilled with cell lysate. The protein samples were denatured for 5 min at 100° C., glue was removed then, the protein was transferred on the PVDF film after completion, the PBS/t solution containing 5% skimmed milk powder was used for sealing for one hour at room temperature. The PBS/t solution containing 3% bovine serum almbumin was used for diluting the primary anti-body (1:5000), and incubated overnight with the PVDF film containing target protein at 4° C. PBS/t was used for dipping the film twice 5 min each time. PBS was used for diluting the secondary antibody (1:5000) and the cells were incubated for one hour at room temperature, the film was dipped with PSB for three times and 5 min each time. ECL chromogenic reagent was evenly coated on the PVDF film containing target protein ad reacted for five minutes, excessive Chromogenic reagent was removed, and the cells were placed together with the film in a dark box for five minutes to finish film colour development.

Experiment [4] concerns embryonic stem cells. Nature of the experiment: Detection of in vitro vascularization on Matrigel. The format is cell-based, mouse. The settings on record: cells induced for ten days. As for the experimental part:
The embryonic stem cells after induction for ten days were seeded in 24-well cell culture plate paved with Matrigel in advance, the detection culture system was replaced for the cells and placed at 37° C., the cells were cultured at CO2 incubator for 4 hours to 72 hours, and the vascularization conditions were regularly observed. The normal group was set: embryonic stem cells which were cultured for ten days under the culture conditions of differentiation culture medium; solvent control group: embryonic stem cells which were cultured for ten days after DMSO was added under the culture condition of differentiation culture medium. Experimental group: embryonic stem cells which were cultured for ten days after 2,3-dihydro-3-hydroxymethyl-6-amino-[1,4]-benzoxazine was added under the culture condition of differentiation culture medium.
The embryonic stem cells were evenly grown in a 24-well plate according to the density of 2×10^4 cells/well and cultured for 24 hours with DMEM (high glucose) containing leukemia inhibitory factor, L-glutamine, streptomycin, β-mercaptoethanol, non-essential amino acids, nucleotides and 15% FBS, the waste liquid was discarded after the cells adhered on the wall, and the cells were cleaned with 1×PBS. […]

Experiment [5] has as its system embryonic stem cells. Put plainly: Function detection of phagocytosis of Dil-Ac-LDL. The class given is cell-based, mouse. The following applies: cells induced for ten days, six hours with Dil-Ac-LDL. The method, then: The embryonic stem cells after induction for ten days were seeded in 24-well paved with gelatin, placed at 37° C., and cultured in CO2 incubator. After the cells adhered on the wall, the Dil-Ac-LDL diluted with medium culture was added into the culture plates, placed at 37° C., and cultured in CO2 incubator for six hours. The normal group was set: embryonic stem cells which were cultured for ten days under the culture condition of differentiation culture medium; Solvent control group: the embryonic stem cells which were cultured for ten days after DMSO was added under the culture condition of differentiation culture medium; experimental group: the embryonic stem cells which were cultured for ten days after 2,3-dihydro-3-hydroxy methyl-6-amino-[1,4]-benzoxazine with the concentration of 0.5 μM˜40 μM was added under the culture condition of differentiation culture medium. […]
The embryonic stem cells were evenly grown in a 24-well plate according to the density of 2×10^4 cells/well and cultured for 24 hours with DMEM (high glucose) containing leukemia inhibitory factor, L-glutamine, streptomycin, β-mercaptoethanol, non-essential amino acids, nucleotides and 15% FBS, the waste liquid was discarded after the cells adhered on the wall, and the cells were cleaned with 1×PBS. […] The conditions of phagocytosing Dil-Ac-LDL were detected with laser confocal microscopy.

Experiment [6] deals with mouse embryonic stem cells. Nature of the experiment: Induction of mouse embryonic stem cells to differentiate to vascular endothelial cells (overall conclusion). The format is cell-based. The following applies: for differentiation of mouse embryonic stem cells to vascular endothelial cells: five to ten days, differentiation culture medium. From the text:
Cell biology and molecular biology methods were adopted to study and validate the function of the 2,3-dihydro-3-hydroxymethyl-6-amino-[1,4]-benzoxazine of the invention to induce embryonic stem cells to differentiate to vascular endothelial cells with the following experiments.

Setting [7] is: 10 μM, listed as 2 3-dihydro-3-hydroxymethyl-6-amino-[1,4]-benzoxazine.

The values below come from patent US9101634B2, “Application of 2, 3-dihydro-3-hydroxymethyl-6-amino-[1,4]-benzoxazine in preparation of drugs inducing embryonic stem cells to differentiate to vascular endothelial cells” (SHANDONG UNIVERSITY, priority 2010, dated 2015).

Each structure is given as a SMILES string. Entries after “also recorded” stand apart in the source; their conditions may differ.

As to `Nc1ccc2c(c1)NC(CO)CO2` (centres unmarked) [2,3-dihydro-3-hydroxymethyl-6-amino-[1,4]-benzoxazine], the “cell morphology change to vascular endothelial cell form” value in experiment [1] (10 μM, differentiation culture medium without leukemia inhibitory factor) is reported as “significant changes; also recorded: prominently prompt the embryonic stem cells to show the vascular endothelial form”. The “cell morphology change versus normal and solvent control groups” value in experiment [1] (1˜20 μM, differentiation culture medium without leukemia inhibitory factor) is given as “changed compared with the cell morphology of the control group; also recorded: changed compared with the cell form of the control group”. Also, the “cell form changes of other treatment groups” value in experiment [1] (other concentrations of the 0.5 μM˜40 μM range (outside 1˜20 μM)) is on record as “relatively weak”. The “expression of vascular endothelial cell marker Flk-1” value is “increased” in experiment [2] (1 μM˜20 μM), “more obvious” in experiment [2] (10 μM) and “stronger Flk-1 expression” in experiment [2] (setting [7]). The “expression of vascular endothelial cell marker CD31” value is recorded as “increased” in experiment [3] (1 μM˜20 μM, versus solvent control, listed as 2 3-dihydro-3-hydroxymethyl-6-amino-[1,4]-benzoxazine); “increased expression of CD31” in experiment [3] (1 μM˜20 μM, versus solvent control, listed as 2,3-dihydro-3-(hydroxymethyl)-6-amino-[1,4]-benzoxazine); “more significant” in experiment [3] (10 μM); “stronger CD31 expression” in experiment [3] (setting [7]). Moreover, the entries for the “formation of vessel-like structures on Matrigel” value in the experiment on embryonic stem cells [4] (10 μM) and in the experiment on embryonic stem cells [4] (1˜20 μM) were “particularly prominent vessel-like structures; also recorded: prominently form blood vessels in vitro; also recorded: prominently form blood vessels on Matrigel” and “form varying degrees of cavity-like vessel-like structures”, respectively. The “phagocytosis of Dil-Ac-LDL” value with embryonic stem cells [5] (1 μM˜20 μM) is reported as “can phagocytose Dil-Ac-LDL”; in the experiment on embryonic stem cells [5] (10 μM) it was “particularly evident; also recorded: prominent effect of phagocytosing Dil-Ac-LDL; also recorded: prominently phagocytose Dil-Ac-LDL”. In addition, in experiment [6], the “optimal concentration for inducing differentiation to vascular endothelial cells” value was 10 µM. For the same compound, the “differentiation of mouse embryonic stem cells to vascular endothelial cells” value in experiment [6] (1 μM˜20 μM) is given as “prominently promote differentiation of mouse embryonic stem cells to vascular endothelial cells”; in experiment [6] (10 μM), “particularly prominent”.
